According to US20260216229A1, “PROGRAMMABLE DNA PROTEOLYSIS TARGET CHIMERAS AND METHODS OF THEIR USE” (ARIZONA BOARD OF REGENTS ON BEHALF OF ARIZONA STATE …, priority 2023, published 2026):

Molecular target: T1, CDK6 (Homo sapiens, UniProt Q00534)
T1 construct: Western blot analysis of CDK6 degradation in U251 cells treated with distance-based DNA-PROTACs; endogenous in cells; host or cells: U-251 MG (U251) glioblastoma cells
Experiment: Western blot of CDK6 degradation in U251 cells transfected with DNA-PROTACs
Assay type: cell-based
Details: for CDK6 protein degradation (Western blot): 14-hour treatment
Description: U-251 MG Glioblastoma Cell Line was grown in Dulbecco's Modified Eagles Medium (DMEM) containing 10% heat inactivated fetal bovine serum (FBS), streptomycin (5 μg/mL) and 5 U/mL penicillin 95 U/mL). All cell lines were maintained, and cell culture experiments were carried out in humidified incubators at 37° C. and 5% CO2 supplementation.
One day prior to DNA-PROTACs transfection, cells were propagated into 6 cm cell culture dishes containing appropriate complete growth medium. Prior to transfection, complete medium was replaced with transfection medium (5% FBS, no Penstrep). DNA-PROTACs transfection was performed using lipofectamine 3000 reagent according to the protocols provided by the manufacture. All transfections were carried out in 6-cm dishes with 3 mL of media and concentrations of DNA-PROTACs were calculated according to this volume (3 mL). Briefly, for 50 nM concentration, 5 μL from a 30 µM DNA-PROTACs stock and 12 μL p3000 reagent was added to a tube containing 125 μL of OPTIM-MEM and 8 μL of Lipofectamine 3000 reagent was added to a separate tube containing 125 μL of OPTIM-MEM. Two tubes were incubated for 5 minutes at room temperature and DNA-PROTACs containing OPTI-MEM was then slowly added to the second tube with lipo3000. The solution in the tube was mixed well by pipetting up and down several times. After incubating for 15-20 minutes at room temperature, 250 μL of DNA-PROTACs-lipofectamine complex was added drop wise onto cells containing the transfection medium. Transfection medium was mixed well before transferring the plate into the incubator. After appropriate time, cells were either harvested or replaced with fresh medium and incubated for desired time point prior to harvesting. For proteasome inhibition assay, 5 μM of MG-132 was incubated with cells for 2 h prior to transfection of DNA-PROTACs. Then, cells were incubated for another 12 h before lysing cells. Cell lysates were prepared by incubating cells in RIPA lysis buffer (25 mM Tris pH 7.6, 150 mM NaCl, 1% NP40, 1% deoxycholate, 0.1% SDS, 1× protease inhibitor cocktail from Roche and 1 mM of PMSF) on ice for 30 minutes and cell lysate was clarified by centrifugation at high speed (15 000 rpm) for 15 minutes. Clear supernatant was collected for further experiments.
Protein concentration in all the cell lysates were measured by BCA protein assay kit and equal amounts from each lysate were mixed with 4×loading dye and boiled for 5 minutes followed by 2 minutes centrifugation prior to loading into SDS-PAGE gel. Next proteins on the SDS-PAGE gel were transferred to a Nitrocellulose membrane by western blotting and the membrane was blocked with 5% milk in TBST (0.05% Tween 20) for 1 h. Primary antibodies (all Abcam antibodies were diluted 1:5000) were prepared in TBST with 2.5% milk and membranes were incubated overnight at 4° C. On the following day, membrane was washes for 15 minutes (Incubate for three times, 5 minutes each) and appropriate secondary antibodies (1:5000) were prepared in TBST and incubated with the membrane for 1 h at room temperature (RT). Membrane was washed for 15 minutes with TBST (incubate for three times, […]) prior to imaging.
The degradation efficiency of various DNA-PROTACs was evaluated through their transfection into U251 cells, conducted simultaneously to ensure uniform experimental conditions. A double-stranded DNA sequence without any ligand was utilized as a negative control, providing a baseline for comparison. Following a 14-hour treatment period, a duration selected based on preliminary time-course studies, the cells were harvested using trypsin digestion. The lysates obtained were then subjected to SDS-PAGE, followed by Western blot analysis to assess protein degradation. […] This finding highlights the efficacy of DNA-PROTAC V02 in targeting and reducing CDK6 protein levels. In comparison, DNA-PROTAC Versions 03 and 04 also facilitated protein degradation, albeit with varying degrees of efficiency. […]

T1 sequence (Q00534 whole entry): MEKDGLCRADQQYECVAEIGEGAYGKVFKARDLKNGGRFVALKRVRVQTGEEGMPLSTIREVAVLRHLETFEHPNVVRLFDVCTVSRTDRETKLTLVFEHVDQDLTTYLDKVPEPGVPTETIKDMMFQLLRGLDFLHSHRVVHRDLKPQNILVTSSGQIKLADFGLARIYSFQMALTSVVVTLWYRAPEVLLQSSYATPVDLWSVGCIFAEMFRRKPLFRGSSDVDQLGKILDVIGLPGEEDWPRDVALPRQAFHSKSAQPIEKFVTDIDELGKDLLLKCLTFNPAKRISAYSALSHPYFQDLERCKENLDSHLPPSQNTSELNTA

With `CC(=O)c1c(C)c2cnc(Nc3ccc(N4CCN(CCOCCOCCOCCNC(=O)COc5cccc6c5C(=O)N(C5CCC(=O)NC5=O)C6=O)CC4)cn3)nc2n(C2CCCC2)c1=O` (centres unmarked) [BSJ-03-123, reference compound] the “CDK6 protein levels (Western blot)” value (160 nM treatment) was “discernible reduction in protein levels”.

For “A-minor-00: angular-series DNA duplex of E3-i strand SEQ ID NO 3 and POI-i strand SEQ ID NO 5 (chain 1 ACTCCATCTANTTCTACGCCA; chain 2 TGGCGTAGAATAGANTGGAGT; pomalidomide and POI ligand conjugated; modified_base 1 OTHER; Nucleotide with phosphorothioate linkage; modified_base 2 OTHER; modified_base 3 OTHER; misc_difference 11 E3 ligase attached to 3-Dimethoxytrityloxy-2-(3-(fluorenylmethoxycarbonylamino)propanamido)propyl-1-O-(2-cyanoethyl)-(N,N-diisopropyl)-phosphoramidite modified adenosine, cytidine, thymi; m)”, the “CDK6 protein degradation (Western blot)” value (concentration not given) was “marginal CDK6 degradation”.

“A-minor-01: angular-series DNA duplex of E3-i strand SEQ ID NO 3 and POI-i strand SEQ ID NO 21 (chain 1 ACTCCATCTANTTCTACGCCA; chain 2 TGGCGTAGAATAGNATGGAGT; E3 and POI ligands conjugated; modified_base 1 OTHER; Nucleotide with phosphorothioate linkage; modified_base 2 OTHER; modified_base 3 OTHER; misc_difference 11 E3 ligase attached to 3-Dimethoxytrityloxy-2-(3-(fluorenylmethoxycarbonylamino)propanamido)propyl-1-O-(2-cyanoethyl)-(N,N-diisopropyl)-phosphoramidite modified adenosine, cytidine, thymi; m)” was tested, and the “CDK6 protein degradation (Western blot)” value (100 nM) was “substantial degradation”.

In the case of “A-minor-02: angular-series DNA duplex of E3-i strand SEQ ID NO 3 and POI-i strand SEQ ID NO 22 (chain 1 ACTCCATCTANTTCTACGCCA; chain 2 TGGCGTAGAATANGATGGAGT; E3 and POI ligands conjugated; modified_base 1 OTHER; Nucleotide with phosphorothioate linkage; modified_base 2 OTHER; modified_base 3 OTHER; misc_difference 11 E3 ligase attached to 3-Dimethoxytrityloxy-2-(3-(fluorenylmethoxycarbonylamino)propanamido)propyl-1-O-(2-cyanoethyl)-(N,N-diisopropyl)-phosphoramidite modified adenosine, cytidine, thymi; m)”, the “CDK6 protein degradation (Western blot)” value (100 nM) is reported as “substantial degradation”.

In the case of “A-minor-03: angular-series DNA duplex of E3-i strand SEQ ID NO 3 and POI-i strand SEQ ID NO 23 (chain 1 ACTCCATCTANTTCTACGCCA; chain 2 TGGCGTAGAATNAGATGGAGT; E3 and POI ligands conjugated; modified_base 1 OTHER; Nucleotide with phosphorothioate linkage; modified_base 2 OTHER; modified_base 3 OTHER; misc_difference 11 E3 ligase attached to 3-Dimethoxytrityloxy-2-(3-(fluorenylmethoxycarbonylamino)propanamido)propyl-1-O-(2-cyanoethyl)-(N,N-diisopropyl)-phosphoramidite modified adenosine, cytidine, thymi; m)”, the “concentration at which significant CDK6 degradation begins” value (14 hours, angular series) is reported as 20 nM.

In the case of “Version 03: DNA duplex of E3-i strand SEQ ID NO 3 and POI-i strand SEQ ID NO 5 (chain 1 ACTCCATCTANTTCTACGCCA; chain 2 TGGCGTAGAATAGANTGGAGT; E3 and POI ligands conjugated; modified_base 1 OTHER; Nucleotide with phosphorothioate linkage; modified_base 2 OTHER; modified_base 3 OTHER; misc_difference 11 E3 ligase attached to 3-Dimethoxytrityloxy-2-(3-(fluorenylmethoxycarbonylamino)propanamido)propyl-1-O-(2-cyanoethyl)-(N,N-diisopropyl)-phosphoramidite modified adenosine, cytidine, thymi; m)”, the “CDK6 protein degradation (Western blot)” value (100 nM) is reported as “substantially reduce CDK6 protein levels”.

With “Version 04: DNA duplex of E3-i strand SEQ ID NO 3 and POI-i strand SEQ ID NO 6 (chain 1 ACTCCATCTANTTCTACGCCA; chain 2 TGGCNGTAGAATAGATGGAGT; E3 and POI ligands conjugated; modified_base 1 OTHER; Nucleotide with phosphorothioate linkage; modified_base 2 OTHER; modified_base 3 OTHER; misc_difference 11 E3 ligase attached to 3-Dimethoxytrityloxy-2-(3-(fluorenylmethoxycarbonylamino)propanamido)propyl-1-O-(2-cyanoethyl)-(N,N-diisopropyl)-phosphoramidite modified adenosine, cytidine, thymi; m)” the “CDK6 protein degradation (Western blot)” value (50 nM) was “more pronounced reduction in protein levels”.

“Version 05: DNA duplex of E3-i strand SEQ ID NO 18 and POI-i strand SEQ ID NO 20; largest ligand distance of approximately 60.2 Å (chain 1 ANCTCCATCTATTCTACGCCA; chain 2 TNGGCGTAGAATAGATGGAGT; E3 and POI ligands conjugated; modified_base 1 OTHER; Nucleotide with phosphorothioate linkage; misc_difference 2 E3 ligase attached to 3-Dimethoxytrityloxy-2-(3-(fluorenylmethoxycarbonylamino)propanamido)propyl-1-O-(2-cyanoethyl)-(N,N-diisopropyl)-phosphoramidite modified adenosine, cytidine, thymidine, guanosine, unknown or other nucleotide with phosphorothioate linkage; modified_base 3 OTHER; Nucleotide with phosphorothioate; misc_difference 2 Protein of interest attached to 3-Dimethoxytrityloxy-2-(3-(fluorenylmethoxycarbonylamino)propanamido)propyl-1-O-()” was tested, and the “CDK6 protein degradation (Western blot)” value (50 nM and 100 nM, vs ligand-free dsDNA control) was “did not exhibit any discernible protein degradation”.
